Laboratory results taken from ChEMBL document CHEMBL1201862, “PubChem BioAssay data set” (2004).
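Grown in 96-well plates, cells were treated for 48 hours with each compound at five concentrations. Insufficient inhibition: endpoint recorded as highest concentration tested. GI50 = concentration required for 50% inhibition of growth.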 The source made the active and inactive calls. Cut-off read from the data, not from the text of the source: active = GI50 up to about 1.1 µM and inactive = higher.

What was measured:
Test in all cases: DTP human tumour cell line panel, 48 h
NCI-H226 = tested on: NCI-H226
786-0 = tested on: 786-0
NCI/ADR-RES = tested on: NCI/ADR-RES
SK-OV-3 = tested on: SK-OV-3
LOX IMVI = tested on: LOX IMVI
HL-60 = tested on: HL-60
Hs-578T = tested on: Hs-578T
T47D = tested on: T47D
SW-620 = tested on: SW-620
OVCAR-8 = tested on: OVCAR-8
CAKI-1 = tested on: CAKI-1
Malme-3M = tested on: Malme-3M
UO-31 = tested on: UO-31
UACC-257 = tested on: UACC-257
MDA-MB-231 = tested on: MDA-MB-231
DU-145 = tested on: DU-145
U-251 = tested on: U-251
HCT-116 = tested on: HCT-116
M14 = tested on: M14
CCRF-CEM = tested on: CCRF-CEM
HOP-92 = tested on: HOP-92
PC-3 = tested on: PC-3
MDA-N = tested on: MDA-N
SNB-75 = tested on: SNB-75
MDA-MB-435 = tested on: MDA-MB-435
MCF7 = tested on: MCF7
NCI-H23 = tested on: NCI-H23
ACHN = tested on: ACHN
HCT-15 = tested on: HCT-15
MOLT-4 = tested on: MOLT-4
NCI-H522 = tested on: NCI-H522
SK-MEL-5 = tested on: SK-MEL-5
BT-549 = tested on: BT-549
EKVX = tested on: EKVX
SNB-19 = tested on: SNB-19
SN12C = tested on: SN12C
KM12 = tested on: KM12
TK-10 = tested on: TK-10
OVCAR-4 = tested on: OVCAR-4
RPMI-8226 = tested on: RPMI-8226
COLO 205 = tested on: COLO 205
HOP-62 = tested on: HOP-62
SK-MEL-2 = tested on: SK-MEL-2
NCI-H460 = tested on: NCI-H460
SF-268 = tested on: SF-268
OVCAR-5 = tested on: OVCAR-5
SF-295 = tested on: SF-295
A549 = tested on: A549
RXF 393 = tested on: RXF 393
IGROV-1 = tested on: IGROV-1
SF-539 = tested on: SF-539
SK-MEL-28 = tested on: SK-MEL-28
K562 = tested on: K562
A498 = tested on: A498
HT-29 = tested on: HT-29
HCC 2998 = tested on: HCC 2998
UACC-62 = tested on: UACC-62
SR = tested on: SR
OVCAR-3 = tested on: OVCAR-3

For `CCC[C@H](N[S+]([O-])c1ccc(C)cc1)C(C(=O)OCC)=C(c1ccccc1)c1ccccc1` (stereo partly drawn), the GI50 (NCI-H226) was 26.1 µM (inactive), the GI50 (786-0) was 18.1 µM (inactive) and the GI50 (NCI/ADR-RES) was 27.7 µM (inactive). The GI50 (SK-OV-3) was 24.6 µM (inactive), the GI50 (LOX IMVI) was 18.1 µM (inactive) and the GI50 (HL-60) was 21.4 µM (inactive). The GI50 (Hs-578T) was 25.8 µM (inactive), the GI50 (T47D) was 16.8 µM (inactive) and the GI50 (SW-620) was 57.4 µM (inactive). The GI50 (OVCAR-8) was 27.4 µM (inactive), the GI50 (CAKI-1) was 13.3 µM (inactive) and the GI50 (Malme-3M) was 17.4 µM (inactive). For the same molecule, the GI50 (UO-31) was 14.8 µM (inactive), the GI50 (UACC-257) was 16.1 µM (inactive) and the GI50 (MDA-MB-231) was 18.7 µM (inactive). For the same molecule, the GI50 (DU-145) was 18.9 µM (inactive), the GI50 (U-251) was 16.2 µM (inactive) and the GI50 (HCT-116) was 14.1 µM (inactive). For the same molecule, the GI50 (M14) was 22 µM (inactive), the GI50 (CCRF-CEM) was 26 µM (inactive) and the GI50 (HOP-92) was 15.1 µM (inactive). For the same molecule, the GI50 (PC-3) was 15 µM (inactive), the GI50 (MDA-N) was 20.8 µM (inactive) and the GI50 (SNB-75) was 17.8 µM (inactive). The GI50 (MDA-MB-435) was 17.1 µM (inactive), the GI50 (MCF7) was 16.6 µM (inactive) and the GI50 (NCI-H23) was 27.1 µM (inactive). The GI50 (ACHN) was 22.4 µM (inactive), the GI50 (HCT-15) was 25.2 µM and the GI50 (MOLT-4) was 16.2 µM (inactive). The GI50 (NCI-H522) was 17.3 µM (inactive), the GI50 (SK-MEL-5) was 22.1 µM (inactive) and the GI50 (BT-549) was 21.2 µM (inactive). The GI50 (EKVX) was 18.2 µM (inactive), the GI50 (SNB-19) was 44.3 µM (inactive) and the GI50 (SN12C) was 19.8 µM (inactive). The GI50 (KM12) was 18.6 µM (inactive), the GI50 (TK-10) was 28.6 µM (inactive) and the GI50 (OVCAR-4) was 16.7 µM (inactive). The GI50 (RPMI-8226) was 18.7 µM (inactive), the GI50 (COLO 205) was 22.2 µM (inactive) and the GI50 (HOP-62) was 19 µM (inactive). For the same molecule, the GI50 (SK-MEL-2) was 14.5 µM (inactive), the GI50 (NCI-H460) was 17 µM (inactive) and the GI50 (SF-268) was 30.1 µM (inactive). For the same molecule, the GI50 (OVCAR-5) was 14.5 µM (inactive), the GI50 (SF-295) was 17.8 µM (inactive) and the GI50 (A549) was 21.5 µM (inactive). For the same molecule, the GI50 (RXF 393) was 14.5 µM (inactive), the GI50 (IGROV-1) was 25.1 µM (inactive) and the GI50 (SF-539) was 22.9 µM (inactive). For the same molecule, the GI50 (SK-MEL-28) was 27.6 µM (inactive), the GI50 (K562) was 21.3 µM (inactive) and the GI50 (A498) was 19.7 µM (inactive). For the same molecule, the GI50 (HT-29) was 13.9 µM (inactive), the GI50 (HCC 2998) was 3.13 µM (inactive) and the GI50 (UACC-62) was 13.4 µM (inactive).
`ClC1(Cl)C(c2ccccc2)C1c1ccccc1` (stereo not drawn) was tested, and the GI50 (NCI-H226) was 14.6 µM (inactive), the GI50 (786-0) was 28.5 µM (inactive) and the GI50 (NCI/ADR-RES) was 7.16 µM (inactive). The GI50 (SK-OV-3) was 18.8 µM (inactive), the GI50 (LOX IMVI) was 28.2 µM (inactive) and the GI50 (Hs-578T) was 20.7 µM (inactive). The GI50 (T47D) was 34.6 µM (inactive), the GI50 (SW-620) was 22.2 µM (inactive) and the GI50 (OVCAR-8) was 21.2 µM (inactive). For the same molecule, the GI50 (CAKI-1) was 30 µM (inactive), the GI50 (SR) was 7.64 µM (inactive) and the GI50 (UO-31) was 26.9 µM (inactive). The GI50 (UACC-257) was 30.7 µM (inactive), the GI50 (MDA-MB-231) was 54.2 µM (inactive) and the GI50 (DU-145) was 42.2 µM (inactive). For the same molecule, the GI50 (U-251) was 41.3 µM (inactive), the GI50 (HCT-116) was 23.9 µM (inactive) and the GI50 (M14) was 27.7 µM (inactive). The GI50 (PC-3) was 62.2 µM (inactive), the GI50 (MDA-N) was 5.32 µM (inactive) and the GI50 (SNB-75) was 46 µM (inactive). For the same molecule, the GI50 (MDA-MB-435) was 7.35 µM (inactive), the GI50 (MCF7) was 56 µM (inactive) and the GI50 (NCI-H23) was 24.6 µM (inactive). For the same molecule, the GI50 (ACHN) was 25.6 µM (inactive), the GI50 (HCT-15) was 21.6 µM and the GI50 (MOLT-4) was 26.7 µM (inactive). The GI50 (BT-549) was 33.4 µM (inactive), the GI50 (EKVX) was 18.3 µM (inactive) and the GI50 (SNB-19) was 25.9 µM (inactive). The GI50 (SN12C) was 39.4 µM (inactive), the GI50 (KM12) was 21.4 µM (inactive) and the GI50 (TK-10) was 54 µM (inactive). The GI50 (OVCAR-4) was 44.6 µM (inactive), the GI50 (RPMI-8226) was 24.4 µM (inactive) and the GI50 (COLO 205) was 36 µM (inactive). For the same molecule, the GI50 (HOP-62) was 23.2 µM (inactive), the GI50 (SK-MEL-2) was 13.8 µM (inactive) and the GI50 (NCI-H460) was 13.2 µM (inactive). For the same molecule, the GI50 (SF-268) was 32.4 µM (inactive), the GI50 (OVCAR-5) was 43.6 µM (inactive) and the GI50 (OVCAR-3) was 21.1 µM (inactive). For the same molecule, the GI50 (SF-295) was 17.8 µM (inactive), the GI50 (A549) was 23 µM (inactive) and the GI50 (RXF 393) was 14.4 µM (inactive). For the same molecule, the GI50 (SK-MEL-28) was 41.7 µM (inactive), the GI50 (K562) was 9.68 µM (inactive) and the GI50 (A498) was 38.8 µM (inactive). The GI50 (HCC 2998) was 11.1 µM (inactive) and the GI50 (UACC-62) was 29.5 µM (inactive).
For `C/C(=N/NC(=O)c1ccccc1Nc1ccccc1C(=O)N/N=C(\C)c1ccc(C)cc1)c1ccc(C)cc1`, the GI50 (NCI-H226) was > 100 µM (inactive), the GI50 (786-0) was > 100 µM (inactive) and the GI50 (NCI/ADR-RES) was > 100 µM (inactive). For the same molecule, the GI50 (SK-OV-3) was > 100 µM (inactive), the GI50 (HL-60) was > 100 µM (inactive) and the GI50 (Hs-578T) was > 100 µM (inactive). For the same molecule, the GI50 (T47D) was > 100 µM (inactive), the GI50 (SW-620) was > 100 µM (inactive) and the GI50 (OVCAR-8) was > 100 µM (inactive). For the same molecule, the GI50 (CAKI-1) was > 100 µM (inactive), the GI50 (SR) was > 100 µM (inactive) and the GI50 (Malme-3M) was 32.5 µM (inactive). The GI50 (UO-31) was > 100 µM (inactive), the GI50 (UACC-257) was > 100 µM (inactive) and the GI50 (MDA-MB-231) was 79.1 µM (inactive). For the same molecule, the GI50 (DU-145) was > 100 µM (inactive), the GI50 (U-251) was > 100 µM (inactive) and the GI50 (HCT-116) was 53.3 µM (inactive). For the same molecule, the GI50 (M14) was 47 µM (inactive), the GI50 (CCRF-CEM) was 25.2 µM (inactive) and the GI50 (HOP-92) was > 100 µM (inactive). The GI50 (PC-3) was 41.7 µM (inactive), the GI50 (MDA-N) was > 100 µM (inactive) and the GI50 (SNB-75) was > 100 µM (inactive). For the same molecule, the GI50 (MDA-MB-435) was > 100 µM (inactive), the GI50 (MCF7) was 14.6 µM (inactive) and the GI50 (NCI-H23) was > 100 µM (inactive). The GI50 (ACHN) was 23.9 µM (inactive), the GI50 (HCT-15) was 55 µM and the GI50 (MOLT-4) was 37.8 µM (inactive). For the same molecule, the GI50 (SK-MEL-5) was 42.1 µM (inactive), the GI50 (BT-549) was > 100 µM (inactive) and the GI50 (EKVX) was > 100 µM (inactive). For the same molecule, the GI50 (SNB-19) was > 100 µM (inactive), the GI50 (SN12C) was > 100 µM (inactive) and the GI50 (KM12) was 74.8 µM (inactive). For the same molecule, the GI50 (TK-10) was 18.6 µM (inactive), the GI50 (OVCAR-4) was 32.1 µM (inactive) and the GI50 (RPMI-8226) was > 100 µM (inactive). For the same molecule, the GI50 (COLO 205) was 83.6 µM (inactive), the GI50 (HOP-62) was 11.4 µM (inactive) and the GI50 (SK-MEL-2) was > 100 µM (inactive). The GI50 (NCI-H460) was 15.5 µM (inactive), the GI50 (SF-268) was > 100 µM (inactive) and the GI50 (OVCAR-5) was > 100 µM (inactive). For the same molecule, the GI50 (OVCAR-3) was 4.62 µM (inactive), the GI50 (SF-295) was 22.9 µM (inactive) and the GI50 (A549) was 46.3 µM (inactive). The GI50 (RXF 393) was 12.2 µM (inactive), the GI50 (IGROV-1) was > 100 µM (inactive) and the GI50 (SK-MEL-28) was > 100 µM (inactive). For the same molecule, the GI50 (K562) was 57.4 µM (inactive), the GI50 (A498) was > 100 µM (inactive) and the GI50 (HT-29) was > 100 µM (inactive). The GI50 (HCC 2998) was 10.9 µM (inactive) and the GI50 (UACC-62) was 31.8 µM (inactive).
